Laboratory results from article PMC8708382, “Heterocyclic Cathinones as Inhibitors of Kynurenine Aminotransferase II—Design, Synthesis, and Evaluation” (Pharmaceuticals, 2021).

Tests used:
KAT-II = details: published KAT-II inhibitors, Figure 2; cited from earlier work
hKAT-II = target: T1, hKAT-II (Homo sapiens, UniProt Q8N5Z0); test: Coupled fluorescence in vitro inhibition assay of hKAT-II; format: biochemical; details: for Inhibitory Activity [%I ± SEM] c = 1 µM: 30 min pre-incubation with enzyme, 20 nM hKAT-II, mean ± SEM
T1 construct: hexahistidine tag (N); made in house; host or cells: E. coli BL21(DE3)-RIL
Experimental: The inhibitory activity of amino ketones 11 and 12 was evaluated using a fluorimetric in vitro assay. The activity was determined as the percentage of inhibition (%I) at a concentration of 1 µmol/L and also as IC50 values (Table 1). The observed inhibitory activity confirmed the validity of the computational model and was suitable to conduct a synthesis-directed SAR study around the predicted heterocyclic α-amino ketone structure.
The nucleotide sequence encoding hKAT-II gene was constructed by Invitrogen, Thermo Fisher Scientific. The hKAT-II gene, optimized for heterologous expression in E. coli, was cloned into a pET15b vector using NdeI-XhoI. The hKAT-II protein, carrying an N-terminal hexahistidine tag, was produced in E.coli BL21(DE3)-RIL cells for 4 h at 37 °C. The bacterial cells were then harvested and disintegrated using One-Shot. […] (25.000× g, 30 min) centrifugation cleared cell lysate containing hKAT-II was loaded on the top of a HisTrap Fast Flow column (Cytiva) equilibrated in loading buffer (40 mM Tris, pH 8; 1000 mM NaCl, 40 µM PLP, 5 mM MgCl2, 20 mM imidazole). Following elution of the bound proteins by the loading buffer containing 600 mM imidazole, purified hKAT-II was dialyzed into a storage buffer (20 mM Hepes pH 7.5; 50 mM NaCl, 70 µM PLP, 10% glycerol), concentrated to 1.0–1.5 mg/mL, aliquoted, and stored at −80 °C.
hKAT-II activity was measured using a fluorescence assay utilizing L-α-aminoadipic acid (AAD) and α-ketoglutarate as the substrates as previously described. The assay medium (100 µL) consisted of 0.75 µM of hKAT-II, 0.3 mM of AAD, 50 µM α-ketoglutarate, 3 mM NAD^+, 88 µg/mL of glutamic dehydrogenase, and 5 µM pyridoxal phosphate (PLP) in a 0.1 M phosphate buffer pH 7.5. The activity of the enzyme was assessed on a Spark multiple mode reader (Tecan Group Ltd., Männedorf, Switzerland) with an excitation wavelength of 340 nm and emission wavelength of 390 nm at 37 °C. The plate was shaken for 20 s before reading. The kinetic interval was set at 30 s between each reading, and data were collected for 30 min. The activity of the enzyme was assayed in pentaplicate in each measurement (n = 3). Kinetic data were then collected over a period of 30 min, and the linear part of the initial velocity was used to calculate the enzyme activity expressed as the slope of the linearized curve via the linear regression function (Excel, Microsoft, USA).
The inhibitory activity of the tested compounds was determined via 30 min pre-incubation with the enzyme at various concentrations of the inhibitor at room temperature in a 0.1 M phosphate buffer pH 7.5 with 5 µM PLP. The enzyme reaction was initiated by the addition of a substrate and cofactors. The final mixture contained 20 nM of hKAT-II, 0.3 mM of AAD, 50 µM α-ketoglutarate, 3 mM NAD^+, and 88 µg/mL of glutamic dehydrogenase. Kinetic data were collected over a period of 30 min, and the slope of the linearized curve was calculated as above. The inhibitory activity in %I at a given concentration was calculated for novel compounds using the following equation:(1) Inhibition [%I]=(V0− Vi/V0)×100, where V0 and Vi are the activity of the enzyme in the absence and presence of the inhibitor, respectively. All the data were obtained in pentaplicate for each measurement (n = 3). Alternatively, the IC50 values for selected novel compounds were assessed. GraphPad Prism 8 software (San Diego, USA) was used for the IC50 value calculation using non-linear regression (four parameters). […]

T1 sequence (Q8N5Z0 30-425): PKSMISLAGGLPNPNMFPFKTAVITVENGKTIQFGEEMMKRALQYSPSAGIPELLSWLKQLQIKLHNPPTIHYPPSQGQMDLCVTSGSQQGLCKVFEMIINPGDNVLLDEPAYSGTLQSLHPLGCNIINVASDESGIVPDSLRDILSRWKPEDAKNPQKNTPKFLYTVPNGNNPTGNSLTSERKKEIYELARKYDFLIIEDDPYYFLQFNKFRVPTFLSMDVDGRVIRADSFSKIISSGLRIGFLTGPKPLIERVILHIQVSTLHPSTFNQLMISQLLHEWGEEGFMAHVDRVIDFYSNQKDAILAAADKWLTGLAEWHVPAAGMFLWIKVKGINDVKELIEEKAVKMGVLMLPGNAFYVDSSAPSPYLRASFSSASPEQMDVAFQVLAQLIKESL

Compound	IC50 (KAT-II) [µM]	melting point	Inhibitory Activity [%I ± SEM] c = 1 µM (hKAT-II) [%I]	IC50 (hKAT-II) [µM]
NS(=O)(=O)c1ccc(N2C(=O)c3cc(Cl)c(Cl)cc3C2=O)cc1 [Compound 7]	73.8	–	–	–
Cc1ccc(NC(=O)N2CCCC3(CCC(=O)N(CCC(C)C)C3)C2)cc1Cl (stereo not drawn) [Compound 10]	0.81	–	–	–
C[C@H]1COc2c(N3CCN(N)CC3)c(F)cc3c(=O)c(C(=O)O)cn1c23 [Compound 2, BFF-122]	1	–	–	–
CC(C)[C@@H](Cc1nnc(NS(=O)(=O)c2cc(F)cc(F)c2)s1)c1cccc(F)c1 [Compound 9]	0.88	–	–	–
CC1(C)[C@@H](O)CC[C@]2(C)[C@H]3C(=O)C=C4[C@@H]5C[C@@](C)(C(=O)O)CC[C@]5(C)CC[C@@]4(C)[C@]3(C)CC[C@@H]12 [Compound 6, glycyrrhetinic acid]	7	–	–	–
O=C1NC(=O)/C(=C/c2cccc(-c3ccc4c5c3CCC(=O)N5CC4)c2)S1 [Compound 5, BFF-816]	13.4	–	–	–
N[C@H]1Cc2cn(-c3ccccc3)nc2N(O)C1=O [Compound 4]	0.025	–	–	–
Cn1c(CN2CCOCC2)nc2sc([C@H]3CCCN3C(=O)OCc3ccccc3)nc2c1=O [Compound 8]	0.61	–	–	–
CCS(=O)(=O)c1ccc(C(=O)C[C@H](N)C(=O)O)cc1 [Compound 1, (S)-ESBA]	71	–	–	–
N[C@@H](Cc1ccccc1)C(=O)c1ncc(-c2ccccc2)s1 [Compound 25b]	–	> 175 °C (dec.)	7.22 ± 2.70	–
Cl.N[C@@H](CCc1ccccc1)C(=O)c1cn(-c2ccccc2)nn1 [Compound 21c]	–	> 175 °C (dec.)	16.50 ± 3.71	–
C[C@H](N)C(=O)c1cn(-c2ccc(F)cc2Cl)nn1 [Compound 32a]	–	> 158 °C (dec.)	25.30 ± 1.10	–
C[C@H](N)C(=O)c1nc2ccc(F)cc2s1 [Compound 34b]	–	> 152 °C (dec.)	56.60 ± 3.68	0.987 ± 0.088
C[C@H](N)C(=O)c1cn(-c2ccc(F)cc2)nn1.Cl [Compound 26n]	–	> 183 °C (dec.)	41.77 ± 3.01	–
CC[C@H](N)C(=O)c1ncc(-c2ccccc2)s1 [Compound 25e]	–	> 180 °C (dec.)	44.18 ± 3.42	–
CC[C@H](N)C(=O)c1cn(-c2ccc(F)cc2Cl)nn1 [Compound 32b]	–	> 196 °C (dec.)	21.25 ± 0.67	–
